This assay concerns the target T1, CCR2 (Homo sapiens, UniProt P41597).
T1 construct: host or cells: THP-1 human monocytic cells
T1 sequence (P41597 1-360 isoform P41597-2): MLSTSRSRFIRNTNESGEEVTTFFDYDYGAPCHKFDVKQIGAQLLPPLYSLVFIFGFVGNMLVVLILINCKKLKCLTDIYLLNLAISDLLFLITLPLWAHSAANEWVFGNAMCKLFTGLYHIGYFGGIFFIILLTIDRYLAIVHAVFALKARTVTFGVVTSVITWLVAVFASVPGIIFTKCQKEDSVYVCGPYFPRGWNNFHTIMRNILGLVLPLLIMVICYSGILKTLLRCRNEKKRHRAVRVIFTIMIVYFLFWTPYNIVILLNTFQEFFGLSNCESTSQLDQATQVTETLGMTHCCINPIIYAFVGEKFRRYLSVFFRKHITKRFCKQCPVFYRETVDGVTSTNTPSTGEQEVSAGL
Description: MCP-1 Receptor Binding Assay in THP-1 Cells. The following applies: 0.5 nM 125I labeled MCP-1, 2 hours at 30° C., read-out: Inhibition of MCP-1 Binding IC50 CCR2 Binding. On the procedure:
MCP-1 Receptor Binding Assay in THP-1 Cells
Human monocytic cell line THP-1 cells were obtained from American Type Culture Collection (Manassas, Va., USA). […] The cell density was maintained […].
1 μM cold MCP-1 was used for nonspecific binding.

The IC50 is the concentration at which inhibition is half-maximal. `CN(C)c1ccc(C2(O)CCC(N3CC(NC(=O)CNC(=O)c4cccc(C(F)(F)F)c4)C3)CC2)cc1` (single isomer, unassigned) [Example 54a, N-({1-[4-(4-Dimethylamino-phenyl)-4-hydroxy-cyclohexyl]-azetidin-3-ylcarbamoyl}-methyl)-3-trifluoromethyl-benzamide]: the IC50 is 62 nM.
For `NC(=O)c1ccc(C2(O)CCC(N3CC(NC(=O)CNC(=O)c4cccc(C(F)(F)F)c4)C3)CC2)cc1` (single isomer, unassigned) [Example 55a, N-({1-[4-(4-benzamide)-4-hydroxy-cyclohexyl]-azetidin-3-ylcarbamoyl}-methyl)-3-trifluoromethyl-benzamide] the value was 5300 nM.
As for `COc1ccccc1C1(O)CCC(N2CC(NC(=O)CNC(=O)c3cccc(C(F)(F)F)c3)C2)CC1` (single isomer, unassigned) [Example 56a, N-({1-[4-Hydroxy-4-(2-methoxy-phenyl)-cyclohexyl]-azetidin-3-ylcarbamoyl}-methyl)-3-trifluoromethyl-benzamide], the IC50 came out at 5200 nM.
For `COc1ccc(C2(O)CCC(N3CC(NC(=O)CNC(=O)c4cccc(C(F)(F)F)c4)C3)CC2)cc1F` (single isomer, unassigned) [Example 57a, N-({1-[4-(3-Fluoro-4-methoxy-phenyl)-4-hydroxy-cyclohexyl]-azetidin-3-ylcarbamoyl}-methyl)-3-trifluoromethyl-benzamide] the value was 33 nM.
As for `Nc1cccc(C2(O)CCC(N3CC(NC(=O)CNC(=O)c4cccc(C(F)(F)F)c4)C3)CC2)c1` (single isomer, unassigned) [Example 58a, N-({1-[4-(3-Amino-phenyl)-4-hydroxy-cyclohexyl]-azetidin-3-ylcarbamoyl}-methyl)-3-trifluoromethyl-benzamide], the IC50 turned out to be 52 nM.
The figure for `CCn1c(=O)oc2ccc(C3(O)CCC(N4CC(NC(=O)CNC(=O)c5cccc(C(F)(F)F)c5)C4)CC3)cc21` (single isomer, unassigned) [Example 65a, N-({1-[4-(3-Ethyl-2-oxo-2,3-dihydro-benzooxazol-5-yl)-4-hydroxy-cyclohexyl]-azetidin-3-ylcarbamoyl}-methyl)-3-trifluoromethyl-benzamide] is 150 nM.
As for `O=C(CNC(=O)c1ccc(F)c(C(F)(F)F)c1)NC1CN(C2CCC(c3ccccc3)CC2)C1` (single isomer, unassigned) [Example 71a, 4-Fluoro-N-{[1-(4-phenyl-cyclohexyl)-azetidin-3-ylcarbamoyl]-methyl}-3-trifluoromethyl-benzamide], the IC50 came to 200 nM.
For the compound `O=C(CNC(=O)c1cc(C(F)(F)F)cc(C(F)(F)F)c1)NC1CN(C2CCC(c3ccccc3)CC2)C1` (single isomer, unassigned) [Example 75a, N-{[1-(4-Phenyl-cyclohexyl)-azetidin-3-ylcarbamoyl]-methyl}-3,5-bis-trifluoromethyl-benzamide], the IC50 turned out to be 4700 nM.
The figure for `O=C(CNC(=O)c1cc(F)cc(C(F)(F)F)c1)NC1CN(C2CCC(c3ccccc3)CC2)C1` (single isomer, unassigned) [Example 76a, 3-Fluoro-N-{[1-(4-phenyl-cyclohexyl)-azetidin-3-ylcarbamoyl]-methyl}-5-trifluoromethyl-benzamide] is 220 nM.
For the compound `NC1(c2ccccc2)CCC(N2CC(NC(=O)CNC(=O)c3cccc(C(F)(F)F)c3)C2)CC1` (single isomer, unassigned) [Example 84a, N-{[1-(4-Amino-4-phenyl-cyclohexyl)-azetidin-3-ylcarbamoyl]-methyl}-3-trifluoromethyl-benzamide], the IC50 was found to be 240 nM.
With `NC1(c2ccc3c(c2)OCO3)CCC(N2CC(NC(=O)CNC(=O)c3cccc(C(F)(F)F)c3)C2)CC1` (single isomer, unassigned) [Example 85a, N-{[1-(4-Amino-4-benzo[1,3]dioxol-5-yl-cyclohexyl)-azetidin-3-ylcarbamoyl]-methyl}-3-trifluoromethyl-benzamide], the IC50 stood at 280 nM.
For the compound `COc1cccc(C2(N)CCC(N3CC(NC(=O)CNC(=O)c4cccc(C(F)(F)F)c4)C3)CC2)c1` (single isomer, unassigned) [Example 87a, N-({1-[4-Amino-4-(3-methoxy-phenyl)-cyclohexyl]-azetidin-3-ylcarbamoyl}-methyl)-3-trifluoromethyl-benzamide], the IC50 worked out at 330 nM.
The figure for `O=C(CNC(=O)c1cccc(C(F)(F)F)c1)NC1CN(C2CCC(c3ccc(C(=O)O)cc3)CC2)C1` (stereo not shown) [Example 10, 4-(4-{3-[2-(3-Trifluoromethyl-benzoylamino)-acetylamino]-azetidin-1-yl}-cyclohexyl)-benzoic acid] is 70 nM.
For `O=C(CNC(=O)c1cccc(C(F)(F)F)c1)NC1CN(C2CCC(c3cccc(C(=O)O)c3)CC2)C1` (stereo not shown) [Example 12, 3-(4-{3-[2-(3-Trifluoromethyl-benzoylamino)-acetylamino]-azetidin-1-yl}-cyclohexyl)-benzoic acid], the IC50 was determined as 220 nM.
For `O=C(CNC(=O)c1cccc(C(F)(F)F)c1)NC1CN(C2CCC(c3ccc(N4CCCC4)cc3)CC2)C1` (stereo not shown) [Example 13, N-({1-[4-(4-Pyrrolidin-1-yl-phenyl)-cyclohexyl]-azetidin-3-ylcarbamoyl}-methyl)-3-trifluoromethyl-benzamide] the value was 61 nM; for `Nc1ccc(C2CCC(N3CC(NC(=O)CNC(=O)c4cccc(C(F)(F)F)c4)C3)CC2)cc1` (stereo not shown) [Example 15, N-({1-[4-(4-Amino-phenyl)-cyclohexyl]-azetidin-3-ylcarbamoyl}-methyl)-3-trifluoromethyl-benzamide], 337 nM; for `CS(=O)(=O)Nc1ccc(C2CCC(N3CC(NC(=O)CNC(=O)c4cccc(C(F)(F)F)c4)C3)CC2)cc1` (stereo not shown) [Example 16, N-({1-[4-(4-Methanesulfonylamino-phenyl)-cyclohexyl]-azetidin-3-ylcarbamoyl}-methyl)-3-trifluoromethyl-benzamide], 100 nM.
As to `CC(C)(C)NC(=O)Nc1ccc(C2CCC(N3CC(NC(=O)CNC(=O)c4cccc(C(F)(F)F)c4)C3)CC2)cc1` (stereo not shown) [Example 18, N-[(1-{4-[4-(3-tert-Butyl-ureido)-phenyl]-cyclohexyl}-azetidin-3-ylcarbamoyl)-methyl]-3-trifluoromethyl-benzamide], the IC50 is more than 25000 nM.
The figure for `NC(=O)Nc1ccc(C2CCC(N3CC(NC(=O)CNC(=O)c4cccc(C(F)(F)F)c4)C3)CC2)cc1` (stereo not shown) [Example 19, 3-Trifluoromethyl-N-({1-[4-(4-ureido-phenyl)-cyclohexyl]-azetidin-3-ylcarbamoyl}-methyl)-benzamide] is 130 nM.
Regarding `N=C(N)Cc1ccc(C2CCC(N3CC(NC(=O)CNC(=O)c4cccc(C(F)(F)F)c4)C3)CC2)cc1` (stereo not shown) [Example 22, N-({1-[4-(4-Carbamimidoylmethyl-phenyl)-cyclohexyl]-azetidin-3-ylcarbamoyl}-methyl)-3-trifluoromethyl-benzamide], the IC50 was 8600 nM.
For the compound `O=C(CNC(=O)c1cccc(C(F)(F)F)c1)NC1CN(C2CCC(c3ccc(Cc4nn[nH]n4)cc3)CC2)C1` (stereo not shown) [Example 23, N-[(1-{4-[4-(2H-Tetrazol-5-ylmethyl)-phenyl]-cyclohexyl}-azetidin-3-ylcarbamoyl)-methyl]-3-trifluoromethyl-benzamide], the IC50 stood at 260 nM.
In the case of `O=C(O)Cc1ccc(C2CCC(N3CC(NC(=O)CNC(=O)c4cccc(C(F)(F)F)c4)C3)CC2)cc1` (stereo not shown) [Example 25, [4-(4-{3-[2-(3-Trifluoromethyl-benzoylamino)-acetylamino]-azetidin-1-yl}-cyclohexyl)-phenyl]-acetic acid], the IC50 stood at 320 nM.
For `NC(=O)Cc1ccc(C2CCC(N3CC(NC(=O)CNC(=O)c4cccc(C(F)(F)F)c4)C3)CC2)cc1` (stereo not shown) [Example 26, N-({1-[4-(4-Carbamoylmethyl-phenyl)-cyclohexyl]-azetidin-3-ylcarbamoyl}-methyl)-3-trifluoromethyl-benzamide] the value was 70 nM; for `N#Cc1ccc(C2CCC(N3CC(NC(=O)CNC(=O)c4cccc(C(F)(F)F)c4)C3)CC2)cc1` (stereo not shown) [Example 27, N-({1-[4-(4-Cyano-phenyl)-cyclohexyl]-azetidin-3-ylcarbamoyl}-methyl)-3-trifluoromethyl-benzamide], 86 nM.
As for `O=C(CNC(=O)c1cccc(C(F)(F)F)c1)NC1CN(C2CCC(c3ccc(-c4nn[nH]n4)cc3)CC2)C1` (stereo not shown) [Example 28, N-[(1-{4-[4-(2H-Tetrazol-5-yl)-phenyl]-cyclohexyl}-azetidin-3-ylcarbamoyl)-methyl]-3-trifluoromethyl-benzamide], the IC50 is 200 nM.
Consider `CS(=O)(=O)c1ccc(C2CCC(N3CC(NC(=O)CNC(=O)c4cccc(C(F)(F)F)c4)C3)CC2)cc1` (stereo not shown) [Example 29, N-({1-[4-(4-Methanesulfonyl-phenyl)-cyclohexyl]-azetidin-3-ylcarbamoyl}-methyl)-3-trifluoromethyl-benzamide], for which the IC50 was found to be 280 nM.
As to `CN(C)CCOc1ccc(C2CCC(N3CC(NC(=O)CNC(=O)c4cccc(C(F)(F)F)c4)C3)CC2)cc1` (stereo not shown) [Example 41, N-[(1-{4-[4-(2-Dimethylamino-ethoxy)-phenyl]-cyclohexyl}-azetidin-3-ylcarbamoyl)-methyl]-3-trifluoromethyl-benzamide], the IC50 came out at 160 nM.
`O=C(CNC(=O)c1cccc(C(F)(F)F)c1)NC1CN(C2CCC(O)(c3ccc(O)cc3)CC2)C1` (stereo not shown) [Example 42, N-({1-[4-Hydroxy-4-(4-hydroxy-phenyl)-cyclohexyl]-azetidin-3-ylcarbamoyl}-methyl)-3-trifluoromethyl-benzamide]: the IC50 came out at 130 nM.

The record behind these values is patent US8513229B2, “4-Azetidinyl-1-phenyl-cyclohexane antagonists of CCR2” (Janssen Pharmaceutica NV, priority 2009, dated 2013).
